Converted amounts (≈) assume the structure as drawn. Counter-ions that a name gives are not always drawn. Like-named read-outs stand apart in the source and are kept apart here.
Tests used:
Test in all cases: Bacterial growth minimal inhibitory concentration (broth microdilution, CLSI M7-A7)
E. coli ATCC25922 = format: cell-based, Escherichia coli; details: for MIC: Escherichia coli
Method: (§1) Minimal Inhibitory Concentrations (MICs; mg/L) were determined in cation-adjusted Mueller-Hinton Broth by a microdilution method following the description given in “Methods for Dilution Antimicrobial Susceptibility Tests for Bacteria that Grow Aerobically”, Approved standard, 7th ed., Clinical and Laboratory Standards Institute (CLSI) Document M7-A7, Wayne, Pa., USA (2006).
(§2) All Example compounds, except the compound of Example 62, were tested against several Gram-positive and Gram-negative bacteria. […] K. pneumoniae A-651 and Acinetobacter baumannii T6474 are multiply-resistant strains (in particular quinolone-resistant), while E. coli ATCC25922 and P. aeruginosa ATCC27853 are quinolone-sensitive strains.

P. aeruginosa ATCC27853 = format: cell-based, Pseudomonas aeruginosa; details: for MIC: Pseudomonas aeruginosa
Method: as §1, §2

[1] = system: Acinetobacter baumannii T6474; format: cell-based; details: for MIC: Acinetobacter baumannii
Method: as §1, §2

K. pneumoniae A-651 = format: cell-based, Klebsiella pneumoniae; details: for MIC: Klebsiella pneumoniae
Method: as §1, §2

[2] = ATCC25922, cation-adjusted Mueller-Hinton Broth, microdilution, quinolone-sensitive strain, read-out: MIC for E. coli ATCC25922
[3] = ATCC27853, cation-adjusted Mueller-Hinton Broth, microdilution, quinolone-sensitive strain, read-out: MIC for P. aeruginosa ATCC27853
[4] = T6474, cation-adjusted Mueller-Hinton Broth, microdilution, multiply-resistant (quinolone-resistant) strain, read-out: MIC for A. Baumannii T6474
[5] = A651, cation-adjusted Mueller-Hinton Broth, microdilution, multiply-resistant (quinolone-resistant) strain, read-out: MIC for K. Pneumoniae A-651
[6] = cation-adjusted Mueller-Hinton Broth, microdilution, quinolone-sensitive strain
[7] = cation-adjusted Mueller-Hinton Broth, microdilution, multiply-resistant (quinolone-resistant) strain

Compound: COc1cccc(-c2ccc3nn(CCC(C)(C(=O)NO)S(C)(=O)=O)cc3c2)c1F (racemic) [RE7, (RS)-4-(5-(2-fluoro-3-methoxyphenyl)-2H-indazol-2-yl)-N-hydroxy-2-methyl-2-(methylsulfonyl)butanamide]
- MIC (E. coli ATCC25922; [2]): 0.125 µg/mL (≈ 0.287 µM)
- MIC (P. aeruginosa ATCC27853; [3]): 2 µg/mL (≈ 4.59 µM)
- MIC [1, 4]: 0.5 µg/mL (≈ 1.15 µM)
- MIC (K. pneumoniae A-651; [5]): 0.125 µg/mL (≈ 0.287 µM)

Compound: CN(C)c1ccc(-c2ccc3nn(CC[C@](C)(C(=O)NO)S(C)(=O)=O)cc3c2)cc1 [Example 11, (R)-4-[5-(4-dimethylamino-phenyl)-indazol-2-yl]-N-hydroxy-2-methylsulfonyl-2-methyl-butanamide]
- MIC (E. coli ATCC25922; [2]): 0.063 µg/mL (≈ 0.146 µM)
- MIC (P. aeruginosa ATCC27853; [3]): 8 µg/mL (≈ 18.6 µM)
- MIC [1, 4]: 2 µg/mL (≈ 4.65 µM)
- MIC (K. pneumoniae A-651; [5]): 0.063 µg/mL (≈ 0.146 µM)

Compound: COc1ccc(-c2cc3cn(CC[C@](C)(C(=O)NO)S(C)(=O)=O)nc3cc2F)c(F)c1 [Example 5, (R)-4-[6-fluoro-5-(2-fluoro-4-methoxy-phenyl)-indazol-2-yl]-N-hydroxy-2-methylsulfonyl-2-methyl-butanamide]
- MIC (E. coli ATCC25922; [2]): 0.063 µg/mL (≈ 0.139 µM)
- MIC (P. aeruginosa ATCC27853; [3]): 4 µg/mL (≈ 8.82 µM)
- MIC [1, 4]: 2 µg/mL (≈ 4.41 µM)
- MIC (K. pneumoniae A-651; [5]): 0.063 µg/mL (≈ 0.139 µM)

Compound: C[C@@](CCn1cc2cc(C#CC#CC3(O)CCOCC3)ccc2n1)(C(=O)NO)S(C)(=O)=O [Example 15, (R)—N-hydroxy-4-(5-((4-hydroxytetrahydro-2H-pyran-4-yl)buta-1,3-diyn-1-yl)-2H-indazol-2-yl)-2-methyl-2-(methylsulfonyl)butanamide]
- MIC (E. coli ATCC25922; [2]): 2 µg/mL (≈ 4.35 µM)
- MIC (P. aeruginosa ATCC27853; [3]): 2 µg/mL (≈ 4.35 µM)
- MIC [1, 4]: > 32 µg/mL
- MIC (K. pneumoniae A-651; [5]): 2 µg/mL (≈ 4.35 µM)

Compound: C[C@@](CCn1cc2cc(-c3ccc(-n4nccn4)cc3)ccc2n1)(C(=O)NO)S(C)(=O)=O [Example 12, (R)—N-hydroxy-2-methylsulfonyl-2-methyl-4-[5-(4-[1,2,3]triazol-2-yl-phenyl)-indazol-2-yl]-butanamide]
- MIC (E. coli ATCC25922; [2]): 0.063 µg/mL (≈ 0.139 µM)
- MIC (P. aeruginosa ATCC27853; [3]): 2 µg/mL (≈ 4.4 µM)
- MIC [1, 4]: 1 µg/mL (≈ 2.2 µM)
- MIC (K. pneumoniae A-651; [5]): 0.125 µg/mL (≈ 0.275 µM)

Compound: C[C@@](CCn1cc2cc(C#CC#CC3(O)COC3)ccc2n1)(C(=O)NO)S(C)(=O)=O [Example 28, (R)—N-hydroxy-4-(5-((3-hydroxyoxetan-3-yl)buta-1,3-diyn-1-yl)-2H-indazol-2-yl)-2-methyl-2-(methylsulfonyl)butanamide]
- MIC (E. coli ATCC25922; [2]): 0.5 µg/mL (≈ 1.16 µM)
- MIC (P. aeruginosa ATCC27853; [3]): 1 µg/mL (≈ 2.32 µM)
- MIC [1, 4]: > 32 µg/mL
- MIC (K. pneumoniae A-651; [5]): 0.5 µg/mL (≈ 1.16 µM)

Compound: CC(C)(O)c1ccc(C#Cc2ccc3nn(CC[C@](C)(C(=O)NO)S(C)(=O)=O)cc3c2F)cc1 [Example 14, (R)-4-(4-fluoro-5-((4-(2-hydroxypropan-2-yl)phenyl)ethynyl)-2H-indazol-2-yl)-N-hydroxy-2-methyl-2-(methylsulfonyl)butanamide]
- MIC (E. coli ATCC25922; [2]): 0.25 µg/mL (≈ 0.513 µM)
- MIC (P. aeruginosa ATCC27853; [3]): 2 µg/mL (≈ 4.1 µM)
- MIC [1, 4]: 16 µg/mL (≈ 32.8 µM)
- MIC (K. pneumoniae A-651; [5]): 0.25 µg/mL (≈ 0.513 µM)

Compound: C[C@@](CCn1cc2cc(C#CC#C[C@@H]3C[C@H]3[C@H](O)CO)ccc2n1)(C(=O)NO)S(C)(=O)=O [Example 71, (R)-4-(5-(((1R,2R)-2-((S)-1,2-dihydroxyethyl)cyclopropyl)buta-1,3-diyn-1-yl)-2H-indazol-2-yl)-N-hydroxy-2-methyl-2-(methylsulfonyl)butanamide]
- MIC (E. coli ATCC25922; [2]): 0.25 µg/mL (≈ 0.544 µM)
- MIC (P. aeruginosa ATCC27853; [3]): 0.25 µg/mL (≈ 0.544 µM)
- MIC [1, 4]: 8 µg/mL (≈ 17.4 µM)
- MIC (K. pneumoniae A-651; [5]): 0.5 µg/mL (≈ 1.09 µM)

Compound: C[C@@](CCn1cc2cc(C#CC#CC3(N)COC3)ccc2n1)(C(=O)NO)S(C)(=O)=O [Example 48, (R)-4-(5-((3-aminooxetan-3-yl)buta-1,3-diyn-1-yl)-2H-indazol-2-yl)-N-hydroxy-2-methyl-2-(methylsulfonyl)butanamide formate]
- MIC (E. coli ATCC25922; ATCC25922, read-out: MIC for E. coli ATCC25922): 2 µg/mL
- MIC (P. aeruginosa ATCC27853; ATCC27853, read-out: MIC for P. aeruginosa ATCC27853): 2 µg/mL
- MIC ([1]; T6474, read-out: MIC for A. Baumannii T6474): > 32 µg/mL
- MIC (K. pneumoniae A-651; A651, read-out: MIC for K. Pneumoniae A-651): 4 µg/mL

Compound: C[C@H](O)c1ccc(C#Cc2ccc3nn(CC[C@](C)(C(=O)NO)S(C)(=O)=O)cc3c2)cc1 [Example 34]
- MIC for E. coli ATCC25922 (E. coli ATCC25922; [6]): 0.063 µg/mL
- MIC for P. aeruginosa ATCC27853 (P. aeruginosa ATCC27853; [6]): 0.5 µg/mL
- MIC for A. Baumannii T6474 [1, 7]: 1 µg/mL
- MIC for K. Pneumoniae A-651 (K. pneumoniae A-651; [7]): 0.125 µg/mL

Compound: C[C@@](CCn1cc2cc(C#Cc3ccc([C@@H](O)CO)cc3)ccc2n1)(C(=O)NO)S(C)(=O)=O [Example 26, (2R)-4-{5-[4-((R)-1,2-dihydroxy-ethyl)-phenylethynyl]-indazol-2-yl}-N-hydroxy-2-methylsulfonyl-2-methyl-butanamide]
- MIC (E. coli ATCC25922; [2]): 0.5 µg/mL (≈ 1.06 µM)
- MIC (P. aeruginosa ATCC27853; [3]): 1 µg/mL (≈ 2.12 µM)
- MIC [1, 4]: 8 µg/mL (≈ 17 µM)
- MIC (K. pneumoniae A-651; [5]): 0.5 µg/mL (≈ 1.06 µM)

Source: patent publication US9802901B2, “Antibacterial 2H-indazole derivatives” (priority 2013, dated 2017)
